Source: patent US20230016526A1, “SYSTEM AND METHODS FOR MANIPULATION OF THE ORAL MICROBIOME IN MAMMALS” (ANIMAL MICROBIOME ANALYTICS, INC. (D/B/A ANIMALBIOME), priority 2019, published 2023)

System: cat's oral microbiome
Test: Microbial diversity metrics in sequential oral samples of a cat after a dental procedure with cefovecin sodium
Format: in vivo
Settings: tooth extraction and cefovecin sodium; for PD Evenness: Before 0.53; for HA Evenness: Before 0.62; for PD/HA Evenness: Before 0.85; for PD/HA Diversity: Before 1.21; for PD/HA Richness: Before 1.32; for HA Diversity: Before 1.87; for PD Diversity: Before 2.26; for Pathobiont Richness: Before 3; for HA Richness: Before 31; for PD Richness: Before 41
Protocol: Alpha diversity metrics (Amplified Sequence Variant Richness, Shannon Diversity, and Pielou's Evenness) were calculated for a subset of periodontal disease-associated bacteria (PD) and a subset of health-associated bacteria (HA). The range for PD richness in healthy cats and dogs is 0-39. The range for health richness in healthy cats and dogs is 20-50. For comparison, oral health of each individual was also assessed by examination by a veterinary technician and or a veterinarian and observations of oral health and breath were record as shown in the table below.
Microbial diversity metrics were assessed for three sequential samples collected from a cat with advanced periodontal disease with tooth resorption prior to a dental cleaning to remove calculus, tooth extraction, and treatment with cefovecin sodium, a broad-spectrum antibiotic. Microbial diversity measures for samples collected from a cat with advanced periodontal disease with tooth resorption prior to a dental procedure that included cleaning to remove calculus, tooth extraction, and antibiotic treatment. Samples were collected by swabbing the area between the gingival sulcus and the gingival margin and were sequenced using the Illumina MiniSeq. […] At five weeks after, PD richness had increased but PD diversity had decreased, likely driven by a reduction in evenness. At five weeks after, for HA microbes, there were increases in richness, diversity, and evenness, and the PD/HA ratios for richness and diversity had decreased. Thus, this cat's oral microbiome began to show signs of recovery in a sample collected five weeks later.

[1] = Five weeks after dental cleaning
[2] = Two weeks after dental cleaning

**Q.** With `CO/N=C(/C(=O)N[C@@H]1C(=O)N2C(C(=O)[O-])=C([C@@H]3CCCO3)CS[C@H]12)c1csc(N)n1.[Na+]` [cefovecin sodium] as the molecule, how does the “PD Evenness” value [1] read?
**A.** 0.62

**Q.** And the “HA Evenness” value [1]?
**A.** 0.58

**Q.** And the “PD/HA Evenness” value [1]?
**A.** 1.07

**Q.** And the “PD/HA Diversity” value [1]?
**A.** 1.15

**Q.** And the “PD/HA Richness” value [1]?
**A.** 0.92

**Q.** What about the “HA Diversity” value [1] of the same molecule?
**A.** 1.62

**Q.** What about the “PD Diversity” value [1] of the same molecule?
**A.** 1.86

**Q.** And the “Pathobiont Richness” value [1]?
**A.** 2

**Q.** What about the “HA Richness” value [1] of the same molecule?
**A.** 25

**Q.** And the “PD Richness” value [1]?
**A.** 23

**Q.** And the “PD Evenness” value [2]?
**A.** 0.74

**Q.** And the “HA Evenness” value [2]?
**A.** 0.43

**Q.** And the “PD/HA Evenness” value [2]?
**A.** 1.72

**Q.** And the “PD/HA Diversity” value [2]?
**A.** 1.95

**Q.** And the “PD/HA Richness” value [2]?
**A.** 1.46

**Q.** What about the “HA Diversity” value [2] of the same molecule?
**A.** 1.11

**Q.** What about the “PD Diversity” value [2] of the same molecule?
**A.** 2.17

**Q.** And the “Pathobiont Richness” value [2]?
**A.** 2

**Q.** And the “HA Richness” value [2]?
**A.** 13

**Q.** What about the “PD Richness” value [2] of the same molecule?
**A.** 19
